Article PMC6639057 (Investigational new drugs, 2018)
Values joined by “and” are separate entries in the source; they are usually repeats but may differ in a detail not shown here. Equal entries are not always repeated.

System: patients with advanced solid tumors
Test: Adverse events
[1] = all patients, dose escalation and dose expansion (N = 105)

Cc1csc(-c2nnc(Nc3ccc(Oc4ncccc4-c4ccnc(N)n4)cc3)c3ccccc23)c1 [AMG 900]
AEs leading to discontinuation of AMG 900 (Total (N = 105)): 25 (24) n (%) | All treatment-emergent AEs (Total (N = 105)): 105 (100) n (%) | All treatment-related AEs (Total (N = 105)): 98 (93) n (%) | Fatal AEs (Total (N = 105)): 5 (5) n (%) | Grade ≥ 3 AEs (Total (N = 105)): 79 (75) n (%) | Grade ≥ 3 treatment-related AEs (Total (N = 105)): 61 (58) n (%) | Grade ≥ 3 treatment-related AEs: Anemia (Total (N = 105)): 24 (23) n (%) | Grade ≥ 3 treatment-related AEs: Diarrhea (Total (N = 105)): 4 (4) n (%) | Grade ≥ 3 treatment-related AEs: Fatigue (Total (N = 105)): 5 (5) n (%) | Grade ≥ 3 treatment-related AEs: Febrile neutropenia (Total (N = 105)): 10 (10) n (%) | Grade ≥ 3 treatment-related AEs: Hemoglobin decreased (Total (N = 105)): 4 (4) n (%) | Grade ≥ 3 treatment-related AEs: Leukopenia (Total (N = 105)): 15 (14) n (%) | Grade ≥ 3 treatment-related AEs: Lymphopenia (Total (N = 105)): 4 (4) n (%) | Grade ≥ 3 treatment-related AEs: Nausea (Total (N = 105)): 3 (3) n (%) | Grade ≥ 3 treatment-related AEs: Neutropenia (Total (N = 105)): 44 (42) n (%) | Grade ≥ 3 treatment-related AEs: Thrombocytopenia (Total (N = 105)): 13 (12) n (%) | Grade ≥ 3 treatment-related AEs: Vomiting (Total (N = 105)): 2 (2) n (%) | Grade ≥ 3 treatment-related AEs: White blood cell count decreased (Total (N = 105)): 2 (2) n (%) | Grade ≥ 4 AEs (Total (N = 105)): 40 (38) n (%) | Serious AEs (Total (N = 105)): 39 (37) n (%) | Treatment-related AEs that led to discontinuation of AMG 900 (all patients (13 patients)): 12% | Treatment-related grade ≥ 4 AEs (all patients (31 patients)): 30% | Dose reductions or interruptions due to AEs (all patients (47 patients)): 45% | Dose reductions or interruptions (all patients (51 patients)): 49% | Treatment-related grade ≥ 3 AEs (all patients (61 patients)): 58% | Fatal AEs (all patients (five patients)): 5% | Grade ≥ 4 diarrhea (only nonhematologic grade ≥ 4 AE) (all patients (n = 1)): 1% | Treatment-related grade ≥ 4 leukopenia (all patients (n = 12)): 11% | Discontinuation of AMG 900 due to AEs (all patients (n = 25), data cutoff December 31, 2014): 24% | Treatment-related grade ≥ 4 neutropenia (all patients (n = 30)): 29% | Grade ≥ 3 treatment-related anemia [1]: 23% | Grade ≥ 3 treatment-related leukopenia [1]: 14% | Grade ≥ 3 treatment-related neutropenia [1]: 37% and 42% | Grade ≥ 3 treatment-related thrombocytopenia [1]: 12% | Relation of fatal AEs to treatment (as judged by the investigator): none of the fatal AEs were considered treatment related | AEs leading to discontinuation of AMG 900 (escalation 16 mg (n = 3)): 0 n (%) | All treatment-emergent AEs (escalation 16 mg (n = 3)): 3 (100) n (%) | All treatment-related AEs (escalation 16 mg (n = 3)): 3 (100) n (%) | Fatal AEs (escalation 16 mg (n = 3)): 0 n (%) | Grade ≥ 3 AEs (escalation 16 mg (n = 3)): 1 (33) n (%) | Grade ≥ 3 treatment-related AEs (escalation 16 mg (n = 3)): 1 (33) n (%) | Grade ≥ 3 treatment-related AEs: Anemia (escalation 16 mg (n = 3)): 1 (33) n (%) | Grade ≥ 3 treatment-related AEs: Diarrhea (escalation 16 mg (n = 3)): 0 n (%) | Grade ≥ 3 treatment-related AEs: Fatigue (escalation 16 mg (n = 3)): 0 n (%) | Grade ≥ 3 treatment-related AEs: Febrile neutropenia (escalation 16 mg (n = 3)): 0 n (%) | Grade ≥ 3 treatment-related AEs: Hemoglobin decreased (escalation 16 mg (n = 3)): 0 n (%) | Grade ≥ 3 treatment-related AEs: Leukopenia (escalation 16 mg (n = 3)): 1 (33) n (%) | Grade ≥ 3 treatment-related AEs: Lymphopenia (escalation 16 mg (n = 3)): 0 n (%) | Grade ≥ 3 treatment-related AEs: Nausea (escalation 16 mg (n = 3)): 0 n (%) | Grade ≥ 3 treatment-related AEs: Neutropenia (escalation 16 mg (n = 3)): 1 (33) n (%) | Grade ≥ 3 treatment-related AEs: Thrombocytopenia (escalation 16 mg (n = 3)): 0 n (%) | Grade ≥ 3 treatment-related AEs: Vomiting (escalation 16 mg (n = 3)): 0 n (%) | Grade ≥ 3 treatment-related AEs: White blood cell count decreased (escalation 16 mg (n = 3)): 0 n (%) | Grade ≥ 4 AEs (escalation 16 mg (n = 3)): 1 (33) n (%) | Serious AEs (escalation 16 mg (n = 3)): 0 n (%) | AEs leading to discontinuation of AMG 900 (escalation 24 mg (n = 6)): 1 (17) n (%) | All treatment-emergent AEs (escalation 24 mg (n = 6)): 6 (100) n (%) | All treatment-related AEs (escalation 24 mg (n = 6)): 5 (83) n (%) | Fatal AEs (escalation 24 mg (n = 6)): 0 n (%) | Grade ≥ 3 AEs (escalation 24 mg (n = 6)): 5 (83) n (%) | Grade ≥ 3 treatment-related AEs (escalation 24 mg (n = 6)): 5 (83) n (%) | Grade ≥ 3 treatment-related AEs: Anemia (escalation 24 mg (n = 6)): 0 n (%) | Grade ≥ 3 treatment-related AEs: Diarrhea (escalation 24 mg (n = 6)): 0 n (%) | Grade ≥ 3 treatment-related AEs: Fatigue (escalation 24 mg (n = 6)): 0 n (%) | Grade ≥ 3 treatment-related AEs: Febrile neutropenia (escalation 24 mg (n = 6)): 0 n (%) | Grade ≥ 3 treatment-related AEs: Hemoglobin decreased (escalation 24 mg (n = 6)): 0 n (%) | Grade ≥ 3 treatment-related AEs: Leukopenia (escalation 24 mg (n = 6)): 2 (33) n (%) | Grade ≥ 3 treatment-related AEs: Lymphopenia (escalation 24 mg (n = 6)): 1 (17) n (%)
